Experimental findings from BindingDB's records for doi:10.1016/j.carres.2010.10.023 (East China University of Science and Technology, 2011) are described below.

Where only a bound is given, the exact number is not on record here.

Assay in all cases: Inhibitor Assay
Details in all cases: 30 °C

In test [1] the target is T1, Tyrosine-protein phosphatase non-receptor type 1 (Homo sapiens, UniProt P18031).
T1 sequence (P18031 whole entry): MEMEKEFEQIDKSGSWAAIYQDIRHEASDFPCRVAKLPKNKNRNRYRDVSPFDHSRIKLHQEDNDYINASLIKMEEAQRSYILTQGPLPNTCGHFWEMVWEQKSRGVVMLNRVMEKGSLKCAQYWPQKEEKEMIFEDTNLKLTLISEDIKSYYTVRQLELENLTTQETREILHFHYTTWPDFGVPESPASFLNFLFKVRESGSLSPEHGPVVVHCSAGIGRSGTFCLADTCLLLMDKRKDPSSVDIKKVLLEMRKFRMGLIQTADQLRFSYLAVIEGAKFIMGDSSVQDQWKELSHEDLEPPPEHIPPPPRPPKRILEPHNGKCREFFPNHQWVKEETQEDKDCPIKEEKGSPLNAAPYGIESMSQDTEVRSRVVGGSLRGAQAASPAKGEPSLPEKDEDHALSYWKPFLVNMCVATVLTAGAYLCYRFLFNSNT
Here is the method:
The assay mixture ([…]) containing 50 mM MOPS (pH 6.5), 2 mM pNPP and PTP1B were monitored at 405 nm for 2 min at 30 C.

For test [2], the target named is Tyrosine-protein phosphatase non-receptor type 6 (Homo sapiens, UniProt P29350).
Test [3] deals with Receptor-type tyrosine-protein phosphatase F (Homo sapiens, UniProt P10586).
The target in test [4] is T2, Tyrosine-protein phosphatase non-receptor type 11 (Homo sapiens, UniProt Q06124).
T2 sequence (Q06124 whole entry): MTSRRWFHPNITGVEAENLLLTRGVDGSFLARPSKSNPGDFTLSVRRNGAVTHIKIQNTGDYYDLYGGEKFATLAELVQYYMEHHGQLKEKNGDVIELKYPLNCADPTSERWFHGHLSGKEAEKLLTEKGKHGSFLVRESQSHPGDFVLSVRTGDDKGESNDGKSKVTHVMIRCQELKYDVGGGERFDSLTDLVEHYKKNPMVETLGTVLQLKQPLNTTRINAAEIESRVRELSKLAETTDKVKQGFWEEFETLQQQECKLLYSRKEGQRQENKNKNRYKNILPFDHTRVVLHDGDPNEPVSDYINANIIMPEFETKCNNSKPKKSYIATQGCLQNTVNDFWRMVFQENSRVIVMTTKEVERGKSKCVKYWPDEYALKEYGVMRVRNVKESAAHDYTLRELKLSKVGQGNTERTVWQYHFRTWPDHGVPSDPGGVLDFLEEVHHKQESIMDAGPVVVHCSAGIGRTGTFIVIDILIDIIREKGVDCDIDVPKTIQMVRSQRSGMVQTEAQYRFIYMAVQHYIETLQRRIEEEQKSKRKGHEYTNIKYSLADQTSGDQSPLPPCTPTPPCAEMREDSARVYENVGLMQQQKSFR

The target in test [5] is T3, Tyrosine-protein phosphatase non-receptor type 2 (Homo sapiens, UniProt P17706).
T3 sequence (P17706 whole entry): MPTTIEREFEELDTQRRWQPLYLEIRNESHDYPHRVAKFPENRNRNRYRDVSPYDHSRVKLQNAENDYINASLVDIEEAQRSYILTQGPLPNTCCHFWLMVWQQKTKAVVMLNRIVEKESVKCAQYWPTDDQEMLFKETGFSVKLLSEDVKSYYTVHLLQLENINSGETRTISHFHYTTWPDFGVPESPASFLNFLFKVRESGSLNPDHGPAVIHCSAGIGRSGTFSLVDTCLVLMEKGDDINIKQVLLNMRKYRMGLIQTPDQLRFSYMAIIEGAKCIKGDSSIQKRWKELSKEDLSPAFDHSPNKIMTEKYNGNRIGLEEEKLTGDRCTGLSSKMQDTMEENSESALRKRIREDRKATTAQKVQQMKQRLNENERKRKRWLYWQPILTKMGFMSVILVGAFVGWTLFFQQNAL

Tyrosine-protein phosphatase non-receptor type 6, sequence (P29350 whole entry): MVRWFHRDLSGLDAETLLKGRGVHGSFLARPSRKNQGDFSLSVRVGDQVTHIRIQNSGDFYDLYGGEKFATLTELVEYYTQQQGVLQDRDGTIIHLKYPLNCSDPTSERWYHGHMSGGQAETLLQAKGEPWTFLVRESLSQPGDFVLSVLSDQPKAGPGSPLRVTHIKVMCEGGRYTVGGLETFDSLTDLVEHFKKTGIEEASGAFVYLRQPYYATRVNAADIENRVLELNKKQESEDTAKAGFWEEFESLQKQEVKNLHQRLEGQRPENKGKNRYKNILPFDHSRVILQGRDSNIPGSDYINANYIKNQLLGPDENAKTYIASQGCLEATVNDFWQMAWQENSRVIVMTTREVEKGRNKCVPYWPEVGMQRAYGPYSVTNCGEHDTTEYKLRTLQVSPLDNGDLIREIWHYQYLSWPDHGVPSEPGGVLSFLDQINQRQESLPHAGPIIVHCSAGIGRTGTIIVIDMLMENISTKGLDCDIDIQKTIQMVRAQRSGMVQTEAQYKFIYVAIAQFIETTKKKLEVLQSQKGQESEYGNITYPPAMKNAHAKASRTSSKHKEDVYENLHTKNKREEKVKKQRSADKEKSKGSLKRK
Receptor-type tyrosine-protein phosphatase F, sequence (P10586 whole entry): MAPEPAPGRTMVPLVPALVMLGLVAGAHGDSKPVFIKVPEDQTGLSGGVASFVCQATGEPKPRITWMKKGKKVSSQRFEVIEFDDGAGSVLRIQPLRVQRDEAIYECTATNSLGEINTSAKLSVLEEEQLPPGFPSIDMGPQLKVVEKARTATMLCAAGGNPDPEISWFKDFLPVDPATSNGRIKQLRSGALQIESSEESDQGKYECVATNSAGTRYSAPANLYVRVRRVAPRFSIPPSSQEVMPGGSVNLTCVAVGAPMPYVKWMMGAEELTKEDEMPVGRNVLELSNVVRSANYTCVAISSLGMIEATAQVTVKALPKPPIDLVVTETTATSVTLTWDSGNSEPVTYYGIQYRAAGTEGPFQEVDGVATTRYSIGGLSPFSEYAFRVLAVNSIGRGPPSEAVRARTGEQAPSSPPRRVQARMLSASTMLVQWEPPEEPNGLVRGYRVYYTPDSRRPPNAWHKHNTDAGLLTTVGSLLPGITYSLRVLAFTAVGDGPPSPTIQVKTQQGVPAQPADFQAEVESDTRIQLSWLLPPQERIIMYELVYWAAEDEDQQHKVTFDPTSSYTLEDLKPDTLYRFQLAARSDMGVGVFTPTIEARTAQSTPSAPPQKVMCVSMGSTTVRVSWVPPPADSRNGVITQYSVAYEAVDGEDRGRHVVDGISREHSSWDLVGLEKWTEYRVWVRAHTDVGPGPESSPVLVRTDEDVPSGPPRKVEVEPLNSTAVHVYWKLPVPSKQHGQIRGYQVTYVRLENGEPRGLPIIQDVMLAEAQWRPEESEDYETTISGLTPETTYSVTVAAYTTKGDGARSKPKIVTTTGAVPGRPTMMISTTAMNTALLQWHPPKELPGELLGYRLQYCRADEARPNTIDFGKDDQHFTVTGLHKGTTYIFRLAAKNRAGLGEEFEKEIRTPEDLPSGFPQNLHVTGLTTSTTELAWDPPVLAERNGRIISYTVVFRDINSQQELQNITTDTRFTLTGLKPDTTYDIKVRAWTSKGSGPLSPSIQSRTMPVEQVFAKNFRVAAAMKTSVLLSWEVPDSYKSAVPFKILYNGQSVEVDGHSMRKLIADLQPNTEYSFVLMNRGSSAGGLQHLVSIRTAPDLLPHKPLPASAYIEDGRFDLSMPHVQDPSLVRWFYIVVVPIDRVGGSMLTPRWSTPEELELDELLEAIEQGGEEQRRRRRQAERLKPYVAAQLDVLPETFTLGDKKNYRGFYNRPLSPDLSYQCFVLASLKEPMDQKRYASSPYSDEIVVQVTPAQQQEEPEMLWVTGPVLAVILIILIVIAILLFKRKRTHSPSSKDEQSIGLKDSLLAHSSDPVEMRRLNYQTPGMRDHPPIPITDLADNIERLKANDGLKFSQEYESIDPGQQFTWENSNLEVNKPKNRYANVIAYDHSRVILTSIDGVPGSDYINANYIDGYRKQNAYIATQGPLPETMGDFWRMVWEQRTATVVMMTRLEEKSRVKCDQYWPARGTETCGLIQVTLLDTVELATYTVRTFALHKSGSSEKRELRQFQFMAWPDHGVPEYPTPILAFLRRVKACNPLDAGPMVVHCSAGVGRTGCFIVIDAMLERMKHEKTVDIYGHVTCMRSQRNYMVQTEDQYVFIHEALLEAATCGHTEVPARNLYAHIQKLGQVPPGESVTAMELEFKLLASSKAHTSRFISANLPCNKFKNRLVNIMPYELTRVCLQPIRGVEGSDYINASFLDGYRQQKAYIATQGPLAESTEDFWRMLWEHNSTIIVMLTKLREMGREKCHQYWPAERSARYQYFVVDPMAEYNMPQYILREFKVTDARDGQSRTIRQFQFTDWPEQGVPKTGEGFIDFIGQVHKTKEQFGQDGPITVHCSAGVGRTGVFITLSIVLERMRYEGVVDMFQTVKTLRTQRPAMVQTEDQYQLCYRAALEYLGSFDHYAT

Regarding `COC(=O)C(=O)c1ccc(-n2cc(CO[C@H]3O[C@H](COCc4ccccc4)[C@@H](OCc4ccccc4)[C@H](OCc4ccccc4)[C@H]3OCc3ccccc3)nn2)cc1` [1-(4-(2-Methoxy-2-oxoacetyl)phenyl)-1H-1,2,3-triazol-4-ylmethyl 2,3,4,6-tetra-O-benzyl-a-D-glucopyranoside (17)], inhibition in test [1] was half-maximal at 12.3 µM (IC50).
For the compound `O=C(O)C(=O)c1ccc(-n2cc(CO[C@H]3O[C@H](COCc4ccccc4)[C@@H](OCc4ccccc4)[C@H](OCc4ccccc4)[C@H]3OCc3ccccc3)nn2)cc1` [1-(4-(Carboxycarbonyl)phenyl)-1H-1,2,3-triazol-4-ylmethyl 2,3,4,6-tetra-O-benzyl a-D-glucopyranoside (19)], the 50% inhibitory concentration (IC50) in test [1] was 5.6 µM; in test [2] it was above 100 µM; in test [3] it was above 100 µM; in test [4], 55.4 µM; in test [5], 6.4 µM.
In test [1], `COC(=O)c1ccc(-n2cc(CO[C@H]3O[C@H](COCc4ccccc4)[C@@H](OCc4ccccc4)[C@H](OCc4ccccc4)[C@H]3OCc3ccccc3)nn2)cc1` [1-(4-(Methoxycarbonyl)phenyl)-1H-1,2,3-triazol-4-ylmethyl 2,3,4,6-tetra-O-benzyl a-D-glucopyranoside (16)] had an IC50 above 100 µM.
The same measure, in the same setting: in the case of `CC(=O)c1ccc(-n2cc(CO[C@H]3O[C@H](COCc4ccccc4)[C@@H](OCc4ccccc4)[C@H](OCc4ccccc4)[C@H]3OCc3ccccc3)nn2)cc1` [1-(4-Acetylphenyl)-1H-1,2,3-triazol-4-ylmethyl 2,3,4,6-tetra-O-benzyl a-D-glucopyranoside (11)] it was above 100 µM; in that of `O=C(O)c1ccc(-n2cc(CO[C@H]3O[C@H](COCc4ccccc4)[C@@H](OCc4ccccc4)[C@H](OCc4ccccc4)[C@H]3OCc3ccccc3)nn2)cc1` [1-(4-Carboxyphenyl)-1H-1,2,3-triazol-4-ylmethyl 2,3,4,6-tetra-O-benzyl a-D-glucopyranoside (18)], 11.1 µM.
Consider `[N-]=[N+]=Nc1ccc(C(=O)C(=O)O)cc1` [1-[4-(carboxycarbonyl)phenyl]triaz-2-yn-2-ium-1-ide (7)], for which the IC50 in test [1] was 30.2 µM.
The compound `COC(=O)C(=O)c1ccc(-n2cc(COC[C@H]3O[C@H](OC)[C@H](OCc4ccccc4)[C@@H](OCc4ccccc4)[C@@H]3OCc3ccccc3)nn2)cc1` [Methyl 2,3,4-tri-O-benzyl-6-O-[1-(4-(2-methoxy-2-oxoacetyl)phenyl)-1H-1,2,3-triazol-4-ylmethyl] a-D-glucopyranoside (13)] gave an IC50 in test [1] of 12.7 µM.
With `CO[C@H]1O[C@H](COCc2cn(-c3ccc(C(=O)C(=O)O)cc3)nn2)[C@@H](OCc2ccccc2)[C@H](OCc2ccccc2)[C@H]1OCc1ccccc1` [Methyl 2,3,4-tri-O-benzyl-6-O-[1-(4-(carboxycarbonyl)phenyl)-1H-1,2,3-triazol-4-ylmethyl] a-D-glucopyranoside (15)], the IC50 in test [1] was 3.2 µM; in test [2], above 100 µM; in test [3], above 100 µM; in test [4], above 100 µM; in test [5] it was 14.5 µM.
Take `COC(=O)c1ccc(-n2cc(COC[C@H]3O[C@H](OC)[C@H](OCc4ccccc4)[C@@H](OCc4ccccc4)[C@@H]3OCc3ccccc3)nn2)cc1` [Methyl 2,3,4-tri-O-benzyl-6-O-[1-(4-(methoxycarbonyl)-phenyl)-1H-1,2,3-triazol-4-ylmethyl] a-D-glucopyranoside (12)]: the half-inhibitory concentration (IC50) in test [1] is above 100 µM.
Compound `CO[C@H]1O[C@H](COCc2cn(-c3ccc(C(C)=O)cc3)nn2)[C@@H](OCc2ccccc2)[C@H](OCc2ccccc2)[C@H]1OCc1ccccc1` [Methyl 2,3,4-tri-O-benzyl-6-O-[1-(4-acetylphenyl)-1H-1,2,3-triazol-4-ylmethyl] a-D-glucopyranoside (10)] yielded a half-maximal inhibitory concentration (IC50) in test [1] above 100 µM.
In test [1], `CO[C@H]1O[C@H](COCc2cn(-c3ccc(C(=O)O)cc3)nn2)[C@@H](OCc2ccccc2)[C@H](OCc2ccccc2)[C@H]1OCc1ccccc1` [Methyl 2,3,4-tri-O-benzyl-6-O-[1-(4-carboxyphenyl)-1H-1,2,3-triazol-4-ylmethyl] a-D-glucopyranoside (14)] showed an IC50 above 100 µM.
